For the experiment, the system named is A549 lung cancer cells. The experiment can be described thus: Cellular uptake and intracellular drug release by confocal laser scanning microscopy. The experiment is classed as cell-based. Particulars: 20 h incubation. The procedure:
FIGS. 15A-15F show confocal microscopic images of A549cells after 20 h incubation with doxorubicin (15A-15C) or doxorubicin-CMG nanoparticles (15D-15F). […] Nuclei were stained with DAPI as a control (15A and […]). DAPI and doxorubicin images were merged for comparison (15C-15F).
To test the drug delivery capacity of CMG NPs, DOX was loaded into CMG nanoparticles by physical adsorption. The UV-Vis spectrum of DOX-CMG nanoparticles was used to confirm the loading of DOX onto CMG nanoparticles. […] DOX loading was confirmed by the presence of the characteristic absorbance peak of DOX-CMG at 485 nm (FIG. 12,b), which corresponded to the peak of free DOX (FIG. 12,c). The hydrodynamic diameter of DOX-loaded CMG nanoparticles was about 91 nm and was similar to the CMGs alone (FIGS. 5A-5F). The loading capacity of CMG nanoparticles for DOX was investigated by mixing a fixed concentration of CMG (2 mg/mL) with various initial DOX concentrations as shown in FIG. 13. […] The drug-release kinetics of DOX-CMG nanoparticles was determined at pH about 5.1 and about 7.4 (FIG. 14). […] To determine the effectiveness of the DOX-CMG nanoparticles in killing A549 cancer cells, cells were treated with DOX-CMG nanoparticles with increasing concentrations of DOX, or free DOX, for about 72 h and analyzed using the Presto Blue cell viability assay.

`COc1cccc2c1C(=O)c1c(O)c3c(c(O)c1C2=O)C[C@@](O)(C(=O)CO)C[C@@H]3O[C@H]1C[C@H](N)[C@H](O)[C@H](C)O1` [DOX, doxorubicin]: the “subcellular localization of DOX” value is given as “concentrated in the nuclei”.

These data come from patent US9675714B1, “Graphene based theranostics for tumor targeted drug/gene delivery and imaging” (University of South Florida, priority 2013, dated 2017).
